Key:
PP1 = settings: cited from earlier work
PKR = PKR phosphorylation in cells transformed with v-erbB in the presence of selective phosphatase inhibitors; format: cell-based; settings: in the presence of the inhibitor
From the text: (§1) PKR is not phosphorylated (i.e., […]) in cells transformed with elements of the ras pathway, such as v-erbB. To determine whether serine-threonine phosphatases are responsible for the lack of phosphorylation of PKR in these cells, selective inhibitors of the phosphatases are employed to assess the role of each phosphatase. […] Inhibitors specific for PP1 or PP2C have no effects on PKR phosphorylation.

PP2B = settings: cited from earlier work
PP2A = settings: cited from earlier work
reovirus = assay: Susceptibility of phosphatase inhibitor-treated transformed cells to reovirus infection; format: cell-based; settings: okadaic acid-treated cells
From the text: as §1

For `C=C1[C@@H](O)[C@@H]2O[C@]3(CC[C@H](/C=C/[C@@H](C)[C@@H]4CC(C)=C[C@@]5(O[C@H](C[C@@](C)(O)C(=O)O)CC[C@H]5O)O4)O3)CC[C@H]2O[C@@H]1[C@@H](O)C[C@H](C)[C@H]1O[C@@]2(CCCCO2)CC[C@H]1C` [okadaic acid], the effectiveness against phosphatase (PP1) is given as “less so against PP1”, the “effect on PKR phosphorylation” value (PKR) is given as “PKR becomes phosphorylated” and the effectiveness against phosphatase (PP2B) is given as “only marginally against PP2B”. For the same molecule, the effectiveness against phosphatase (PP2A) was “most effective against PP2A” and the “susceptibility of treated cells to reovirus infection” value (reovirus) was “become susceptible to reovirus infection”.

Reference: patent US20050019308A1, “Oncolytic viruses for the treatment of neoplasms having activated PP2A or Rac” (Oncolytics Biotech Inc., priority 2003, published 2005)
